Test results reported in ChEMBL document CHEMBL4004838, “Design and synthesis of novel phenyl -1, 4-beta-carboline-hybrid molecules as potential anticancer agents” (Eur J Med Chem, 2017).

Legend:
Format in all cases: functional
A549 = test: Growth inhibition of human A549/ATCC cells assessed as cell growth at 1 uM incubated for 48 hrs by sulforhodamine B assay relative to control; conditions: A549, 48 h, read-out: Activity
MCF7 = test: Growth inhibition of human MCF7 cells assessed as cell growth at 0.1 uM incubated for 48 hrs by sulforhodamine B assay relative to control; conditions: MCF7, 48 h, read-out: Activity
MDA-MB-468 = test: Growth inhibition of human MDA-MB-468 cells assessed as cell growth at 0.01 uM incubated for 48 hrs by sulforhodamine B assay relative to control; conditions: MDA-MB-468, 48 h, read-out: Activity
NCI-H322M = test: Growth inhibition of human NCI-H322M cells assessed as cell growth at 0.1 uM incubated for 48 hrs by sulforhodamine B assay relative to control; conditions: read-out: Activity
PC-3 = test: Growth inhibition of human PC3 cells assessed as cell growth at 0.01 uM incubated for 48 hrs by sulforhodamine B assay relative to control; conditions: PC-3, 48 h, read-out: Activity
IGROV-1 = test: Growth inhibition of human IGROV1 cells assessed as cell growth at 0.1 uM incubated for 48 hrs by sulforhodamine B assay relative to control; conditions: IGROV-1, 48 h, read-out: Activity
SK-MEL-5 = test: Growth inhibition of human SK-MEL-5 cells assessed as cell growth at 0.1 uM incubated for 48 hrs by sulforhodamine B assay relative to control; conditions: SK-MEL-5, 48 h, read-out: Activity
786-0 [1] = test: Growth inhibition of human 786-0 cells assessed as cell growth at 0.1 uM incubated for 48 hrs by sulforhodamine B assay relative to control; conditions: 786-0, 48 h, read-out: Activity
SNB-19 [2] = test: Growth inhibition of human SNB19 cells incubated for 48 hrs by sulforhodamine B assay; conditions: SNB-19, 48 h
K562 [3] = test: Growth inhibition of human K562 cells assessed as cell growth at 100 uM incubated for 48 hrs by sulforhodamine B assay relative to control; conditions: K562, 48 h, read-out: Activity
HCT-116 = test: Growth inhibition of human HCT116 cells assessed as cell growth at 0.1 uM incubated for 48 hrs by sulforhodamine B assay relative to control; conditions: HCT-116, 48 h, read-out: Activity
BT-549 = test: Growth inhibition of human BT549 cells assessed as cell growth at 100 uM incubated for 48 hrs by sulforhodamine B assay relative to control; conditions: BT-549, 48 h, read-out: Activity
Hs-578T = test: Growth inhibition of human Hs 578T cells incubated for 48 hrs by sulforhodamine B assay
HOP-62 [4] = test: Growth inhibition of human HOP62 cells incubated for 48 hrs by sulforhodamine B assay; conditions: HOP-62, 48 h
A498 = test: Growth inhibition of human A498 cells assessed as cell growth at 0.01 uM incubated for 48 hrs by sulforhodamine B assay relative to control; conditions: A498, 48 h, read-out: Activity
Malme-3M = test: Growth inhibition of human MALME-3M cells assessed as cell growth at 1 uM incubated for 48 hrs by sulforhodamine B assay relative to control; conditions: read-out: Activity
SR [5] = test: Growth inhibition of human SR cells assessed as cell growth at 0.1 uM incubated for 48 hrs by sulforhodamine B assay relative to control; conditions: read-out: Activity
UACC-257 = test: Growth inhibition of human UACC257 cells incubated for 48 hrs by sulforhodamine B assay; conditions: UACC-257, 48 h
MDA-MB-231 = test: Growth inhibition of human MDA-MB-231 cells incubated for 48 hrs by sulforhodamine B assay; conditions: MDA-MB-231, 48 h
SR [6] = test: Growth inhibition of human SR cells assessed as cell growth at 0.01 uM incubated for 48 hrs by sulforhodamine B assay relative to control; conditions: read-out: Activity
786-0 [7] = test: Growth inhibition of human 786-0 cells incubated for 48 hrs by sulforhodamine B assay; conditions: 786-0, 48 h
K562 [8] = test: Growth inhibition of human K562 cells incubated for 48 hrs by sulforhodamine B assay; conditions: K562, 48 h
SF-268 = test: Growth inhibition of human SF268 cells incubated for 48 hrs by sulforhodamine B assay; conditions: SF-268, 48 h
SNB-19 [9] = test: Growth inhibition of human SNB19 cells assessed as cell growth at 0.01 uM incubated for 48 hrs by sulforhodamine B assay relative to control; conditions: SNB-19, 48 h, read-out: Activity
KM12 = test: Growth inhibition of human KM12 cells incubated for 48 hrs by sulforhodamine B assay; conditions: KM12, 48 h
MOLT-4 = test: Growth inhibition of human MOLT4 cells assessed as cell growth at 100 uM incubated for 48 hrs by sulforhodamine B assay relative to control; conditions: MOLT-4, 48 h, read-out: Activity
HOP-62 [10] = test: Growth inhibition of human HOP62 cells assessed as cell growth at 1 uM incubated for 48 hrs by sulforhodamine B assay relative to control; conditions: HOP-62, 48 h, read-out: Activity
EKVX = test: Growth inhibition of human EKVX cells assessed as cell growth at 0.01 uM incubated for 48 hrs by sulforhodamine B assay relative to control; conditions: read-out: Activity
HOP-92 = test: Growth inhibition of human HOP92 cells assessed as cell growth at 1 uM incubated for 48 hrs by sulforhodamine B assay relative to control; conditions: HOP-92, 48 h, read-out: Activity
[11] = read-out: LC50 (the source's name)
[12] = read-out: pLC50 (the source's name) (converted)

Compound `c1ccc2c3c([nH]c2c1)C(c1ccc(C2NCCc4c2[nH]c2ccccc42)cc1)NCC3` (racemic) has a growth at 1 µM (A549) of 56%, a growth at 0.1 µM (MCF7) of 90% and a growth at 0.01 µM (MDA-MB-468) of 95%. For the same compound, the growth at 0.1 µM (NCI-H322M) was 91%, the growth at 0.01 µM (PC-3) was 96% and the growth at 0.1 µM (IGROV-1) was 92%. The growth at 0.1 µM (SK-MEL-5) was 101%, the growth at 0.1 µM (786-0 [1]) was 103% and the GI50 (SNB-19 [2]; read-out: GI50) was 1730 nM. The CC50 (SNB-19 [2]; [11]) was 7250 nM, the TGI (SNB-19 [2]; read-out: TGI) was 3540 nM and the GI50 (SNB-19 [2]; read-out: pGI50 (converted)) was 1740 nM. It also gave a CC50 (SNB-19 [2]; [12]) of 7240 nM, a TGI (SNB-19 [2]; read-out: pTGI (converted)) of 3550 nM and a growth at 100 µM (K562 [3]) of 78%. The growth at 0.1 µM (HCT-116) was 89%, the growth at 100 µM (BT-549) was -90% and the GI50 (Hs-578T; read-out: GI50) was 1430 nM. The CC50 (Hs-578T; [11]) was 11500 nM, the TGI (Hs-578T; read-out: TGI) was 3820 nM and the GI50 (Hs-578T; read-out: pGI50 (converted)) was 1450 nM. It also gave a CC50 (Hs-578T; [12]) of 11500 nM, a TGI (Hs-578T; read-out: pTGI (converted)) of 3800 nM and a GI50 (HOP-62 [4]; read-out: GI50) of 1310 nM. For the same compound, the TGI (HOP-62 [4]; read-out: TGI) was 2790 nM, the GI50 (HOP-62 [4]; read-out: pGI50 (converted)) was 1320 nM and the TGI (HOP-62 [4]; read-out: pTGI (converted)) was 2820 nM. The growth at 0.01 µM (A498) was 73%, the growth at 1 µM (Malme-3M) was 82% and the growth at 0.1 µM (SR [5]) was 106%. For the same compound, the GI50 (UACC-257; read-out: GI50) was 1190 nM, the CC50 (UACC-257; [11]) was 6500 nM and the TGI (UACC-257; read-out: TGI) was 3520 nM. It also gave a GI50 (UACC-257; read-out: pGI50 (converted)) of 1910 nM, a CC50 (UACC-257; [12]) of 6460 nM and a TGI (UACC-257; read-out: pTGI (converted)) of 3550 nM. For the same compound, the GI50 (MDA-MB-231; read-out: GI50) was 2960 nM, the CC50 (MDA-MB-231; [11]) was 3640 nM and the TGI (MDA-MB-231; read-out: TGI) was 9360 nM. The GI50 (MDA-MB-231; read-out: pGI50 (converted)) was 295 nM, the CC50 (MDA-MB-231; [12]) was 3630 nM and the growth at 0.01 µM (SR [6]) was 108%. The GI50 (786-0 [7]; read-out: GI50) was 1740 nM, the CC50 (786-0 [7]; [11]) was 6540 nM and the TGI (786-0 [7]; read-out: TGI) was 3380 nM. It also gave a GI50 (786-0 [7]; read-out: pGI50 (converted)) of 1740 nM, a CC50 (786-0 [7]; [12]) of 6610 nM and a TGI (786-0 [7]; read-out: pTGI (converted)) of 3390 nM. For the same compound, the GI50 (K562 [8]; read-out: GI50) was 2440 nM, the CC50 (K562 [8]; [11]) was 9750 nM and the TGI (K562 [8]; read-out: TGI) was 4880 nM. It also gave a GI50 (K562 [8]; read-out: pGI50 (converted)) of 245 nM, a CC50 (K562 [8]; [12]) of 977 nM and a TGI (K562 [8]; read-out: pTGI (converted)) of 4900 nM. It also gave a GI50 (SF-268; read-out: GI50) of 1120 nM, a CC50 (SF-268; [11]) of 5890 nM and a TGI (SF-268; read-out: TGI) of 2570 nM. It also gave a GI50 (SF-268; read-out: pGI50 (converted)) of 1120 nM, a CC50 (SF-268; [12]) of 5890 nM and a TGI (SF-268; read-out: pTGI (converted)) of 2570 nM. It also gave a growth at 0.01 µM (SNB-19 [9]) of 97%, a GI50 (KM12; read-out: GI50) of 1070 nM and a TGI (KM12; read-out: TGI) of 2360 nM. It also gave a GI50 (KM12; read-out: pGI50 (converted)) of 1070 nM, a TGI (KM12; read-out: pTGI (converted)) of 2340 nM and a growth at 100 µM (MOLT-4) of 76%. It also gave a growth at 1 µM (HOP-62 [10]) of 68%, a growth at 0.01 µM (EKVX) of 88% and a growth at 1 µM (HOP-92) of 44%.
